From patent publication US12643882B2, “Inhibitors of human respiratory syncytial virus and metapneumovirus” (priority 2022, dated 2026) come the findings set out here.

The structures appear in SMILES notation. Like-named read-outs stand apart in the source and are kept apart here.

One experiment relates to RSV-A2-GFP virus. In words: microbe, parasite or virus in culture. The class given is cell-based, Human Respiratory Syncytial Virus. The procedure: To set up the assay, ARF vials were thawed in a 37° C. water bath and a control compound was resuspended in assay media DMEM (Dulbecco's Modified Eagle Medium) containing 2% FBS, 100 U/ml Penicillin-Streptomycin.
GFP sequence was derived from pJTI™ R4 Dest CMV N-EmGFP pA Vector (Invitrogen) and was cloned into the intergenic sequence between wild-type RSV-A2 P and M genes using standard recombineering techniques. Recombinant RSV-A2-GFP was propagated in Hep2 cells (human cells contain HeLa marker chromosomes and were derived via HeLa contamination, ATCC CCL-23) with a Multiplicity of Infection (MOI) of 0.1. Virus was harvested 3 days after infection by collecting all culture material and then freeze-thawing the mixture for 5 min. Working virus stocks were generated by thawing frozen viral cultures in 37° C. water bath, which were centrifuged at 218 g for 15 min at 4° C. 1/10 of 10×SPG (Biological Industries 06-3061-01-5A) were added and then mixed. The supernatant was aliquoted, frozen in liquid nitrogen, and then transferred to a −80° C. freezer for storage. Virus titer was determined by automated plaque assay in HEp-2 cells following methods described previously (Wen Z. et al.; 2019).
Calu-1 cells were purchased from ATCC (Cat #HTB-54) and were expanded in growth media (DMEM containing 10% FBS, 100 U/ml Penicillin-Streptomycin). To make ARF, cell culture media was removed and discarded and the cell layer was briefly rinsed with PBS to remove serum. 2.5 mL of TrypLE Express solution were added and cells incubated until dislodged, to which growth media was added and the cells were resuspended by gentle pipetting. Cells were counted for concentration and viability as determined by ViCell. Cells were centrifuged at RT, 300 g for 5 minutes to pellet cells. The supernatant was gently aspirated and the pellet was flicked to loosen cells. Cells were resuspended in an appropriate volume of freezing medium (DMEM containing 10% DMSO, 10% FBS, 100 U/ml Penicillin-Streptomycin) to achieve a concentration of 5×10^6 cells/mL. 1 mL aliquots of the cell suspension were transferred to freezing vials. The vials were put into an upright container in a −80° C. freezer overnight before transferring vials to liquid nitrogen for storage.
Assay ready freezedown (ARF, generation described separately) Calu-1 cells (ATCC HTB-54) were used. Compound plates were prepared by dispensing compounds dissolved in DMSO into the wells of a 384 well Corning® 3985 plate with an ECHO acoustic dispenser and compounds were tested in 10-point serial 3-fold dilution. […] To set up the assay, ARF vial(s) were thawed in a 37° C. water bath and were then resuspended into assay media (DMEM containing 2% FBS, 100 U/ml Penicillin-Streptomycin). Cells were counted using default parameters on ViCell and diluted to 20,000 cells/mL in assay media. RSV-A2-GFP virus was added to cells at 24,000 pfu/ml (MOI=1.2) and mixed by gentle inversion. 10 μL/well of 100% DMSO was dispensed as CellTiter-Glo (CTG) assay Max_E controls wells. The cells were dispensed at 50 μL/well using Bravo with 50 μL filtered tips into compound plates. Plates were covered with MicroClime lids, loaded with 7.5 mL of assay media to minimize evaporation, and were incubated at 37° C. and 5% CO2 for 96 hrs. Following incubation, distinct, GFP-expressing cells were counted using an Acumen imaging system with appropriate settings. A same-well CTG assay was performed by adding 10 μL/well reconstituted CellTiter-Glo reagent (Promega G7573) and plates were read on PerkinElmer Envision according to manufacturer's instructions. Raw data were loaded and analyzed in ActivityBase. Antiviral IC50 and cytotoxicity CC50 values were determined using a 4 parameter logistic fit based on the Levenberg-Marquardt algorithm. Model: 205-4 Parameter Logistic.

The next experiment concerns hMPV-GFP virus. In words: microbe, parasite or virus in culture. It counts as cell-based, human metapneumovirus. The procedure:
GFP expressing rgHMPV #3 p3 was generated in Dr. Buchholz's lab (Biacchesi S. et al., J Virol. 2007 June; 81(11): 6057-6067) and propagated in VERO cells (ATCC Cat #CCL-81) with a Multiplicity of Infection (MOI) of 0.1. Virus was harvested 4 days after infection by collecting cultured material and was freeze-thaw cycled in liquid nitrogen twice. Working virus stocks were generated from thawing frozen samples in 37° C. water bath, which were centrifuged at 218 g for 15 min at 4° C. 1/10 of 10×SPG (Biological Industries 06-3061-01-5A) were added and then mixed. The supernatant was aliquoted, frozen in liquid nitrogen, and then transferred to a −80° C. freezer for storage. Virus titer was determined by performing titration test in 96-well plates and calculate approximate virus titer using GFP event/well data.
Compound plates were prepared by dispensing compounds dissolved in DMSO into wells of a 384 well Corning 3985 polystyrene flat clear bottom optical imaging microplate (202.5 nL/well) using an ECHO acoustic dispenser. Each compound was tested in 10-point serial 3-fold dilution (typical final concentrations: 40,300 nM-2 nM). […] Continuous culture of VERO cells was maintained in complete culture media (OptiMEM supplemented with 2 mM GlutaMAX™ and 100 U/ml Penicillin-Streptomycin). To set up the assay, VERO cells were trypsinized with 0.25% Trypsin-EDTA until cells were dislodged, then cells were re-suspended with 1 mL FBS. Cells were spun down at 300 g for 5 minutes and cells were washed twice with culture media and counted using default parameters on ViCell. Cells were then diluted to 100,000 cells/mL (5,000 cells/50 μL) in complete culture media+TrypLE Select (80 μL/mL). hMPV-GFP virus was added to cells at 125,000 pfu/mL (MOI=1.25) and were mixed by gentle inversion. 10 μL/well of 100% DMSO was dispensed to CellTiter-Glo (CTG) assay Max_E controls wells. Cells were dispensed at 50 μL/well using Bravo and 50 μL filtered tips into compound plates. Plates were covered with MicroClime lids and loaded with 7.5 mL of assay media to minimize evaporation. Plates were lightly shaken for 10 minutes at room temperature and then incubated at 37° C. and 5% CO2 for 48 hrs. Following incubation, distinct GFP-expressing cells were counted using an Acumen imaging system with appropriate settings. A same-well CTG assay was performed by adding 10 μL/well reconstituted CellTiter-Glo reagent (Promega G7573) and plates were read on PerkinElmer Envision according to manufacturer's instructions. Raw data were loaded and analyzed in ActivityBase. Antiviral IC50 and cytotoxicity CC50 values were determined using a 4 parameter logistic fit based on the Levenberg-Marquardt algorithm. Model: 205-4 Parameter Logistic. • References: Wen Z, Citron M, Bett A J, Espeseth A S, Vora K A, Zhang L, DiStefano D J. Development and application of a higher throughput RSV plaque assay by immunofluorescent imaging. J Virol Methods. 2019 January; 263:88-95. doi: 10.1016/j.jviromet.2018.10.022. Epub 2018 Oct. 28. PMD: 30381239. • Biacchesi S, Murphy B R, Collins P L, Buchholz U J. Frequent frameshift and point mutations in the SH gene of human metapneumovirus passaged in vitro. J Virol. 2007 June; 81(11):6057-67. doi: 10.1128/JVL.00128-07. Epub 2007 Mar. 21. PMID: 17376897; PMCID: MC 1900297. Assay Data

Where [1] appears, read: Calu-1 cells infected with RSV-A2-GFP, 96 hrs, GFP-expressing cells counted, read-out: RSV EC50.
The mark [2] stands for this setting: VERO cells infected with hMPV-GFP, 48 hrs, GFP-expressing cells counted, read-out: hMPV EC50.
[3] abbreviates: read-out: RSV EC50, Calu-1 cells infected with RSV-A2-GFP, 96 hrs, GFP-expressing cells counted.
Setting [4] is: human metapneumovirus, Vero, 48 h, read-out: hMPV EC50, VERO cells infected with hMPV-GFP, 48 hrs, GFP-expressing cells counted.
[5] abbreviates: read-out: hMPV EC50, VERO cells infected with hMPV-GFP, 48 hrs, GFP-expressing cells counted.
The mark [6] stands for this setting: human respiratory syncytial virus, Calu-1, 96 h, read-out: RSV EC50, Calu-1 cells infected with RSV-A2-GFP, 96 hrs, GFP-expressing cells counted.

A word on the EC50: it is the concentration at which the effect is half-maximal. As for `Cc1nc(-c2ncccn2)sc1C(=O)N1C[C@@H]2C(Oc3cc(C(C)(C)N)cc(C4=CCC(C)CC4)n3)[C@@H]2C1` (mixture of isomers) [Example 46, rac-((1R,5S,6s)-6-((4-(2-aminopropan-2-yl)-6-(4-methylcyclohex-1-en-1-yl)pyridin-2-yl)oxy)-3-azabicyclo[3.1.0]hexan-3-yl)(4-methyl-2-(pyrimidin-2-yl)thiazol-5-yl)methanone], the values for the EC50 with RSV-A2-GFP virus (setting [1]) and with hMPV-GFP virus (setting [2]) were less than 10 nM and more than 100 nM, respectively.
The corresponding values for `Cc1nc(-c2ncccn2)sc1C(=O)N1C[C@@H]2C(Oc3cc(C(C)(C)N)cc(C4=CCC(C(F)(F)F)CC4)n3)[C@@H]2C1` (mixture of isomers) [Example 47, rac-((1R,5S,6s)-6-((4-(2-aminopropan-2-yl)-6-(4-(trifluoromethyl)cyclohex-1-en-1-yl)pyridin-2-yl)oxy)-3-azabicyclo[3.1.0]hexan-3-yl)(4-methyl-2-(pyrimidin-2-yl)thiazol-5-yl)methanone] are less than 10 nM and more than 100 nM.
For `Cc1nc(-c2ncccn2)sc1C(=O)N1C[C@@H]2[C@H]1C[C@H]2Oc1cc(C(C)(C)N)cc(-c2ccc(F)cc2)n1` (single isomer, unassigned) [Example 1A], the EC50 in the experiment with RSV-A2-GFP virus (setting [3]) and in the experiment on hMPV-GFP virus (setting [4]) was more than 100 nM in each case.
As to `Cc1nc(-c2ncccn2)sc1C(=O)N1C[C@@H]2[C@H]1C[C@H]2Oc1cc(C(C)(C)N)cc(-c2ccc(F)cc2)n1` (single isomer, unassigned) [Example 1B], the concentration giving a half-maximal response (EC50) with RSV-A2-GFP virus (setting [3]) was less than 10 nM; in the experiment with hMPV-GFP virus (setting [5]) it was more than 100 nM.
Consider `CC(C)(N)c1cc(O[C@@H]2C[C@@H]3[C@H]2CN3C(=O)c2cnc(-c3ncccn3)s2)nc(-c2ccc(F)cc2)c1` (single isomer, unassigned) [Example 2], for which the 50% effective concentration (EC50) in the experiment with RSV-A2-GFP virus (setting [6]) is 10 to 100 nM; in the experiment on hMPV-GFP virus (setting [4]) it was more than 100 nM.
In the case of `CC(O)c1nn(-c2ncccn2)cc1C(=O)N1C[C@@H]2C(Oc3cc(C(C)(C)N)cc(-c4ccc(F)c(F)c4)n3)[C@@H]2C1` (single isomer, unassigned; enantiomer 1) [Example 96A], the EC50 in the experiment with RSV-A2-GFP virus (setting [1]) is less than 10 nM; with hMPV-GFP virus (setting [2]) it was more than 100 nM.
Turning to `Cc1nc(-c2ncccn2)sc1C(=O)N1C[C@H]2[C@H](Oc3cc(C(C)(C)N)cc(-c4ccc(F)cc4)n3)[C@@]2(C)C1` (single isomer, unassigned; enantiomer 1) [Example 103A], the EC50 is less than 10 nM in the experiment with RSV-A2-GFP virus (setting [6]) and 10 to 100 nM in the experiment with hMPV-GFP virus (setting [4]).
For the molecule `Cn1nc(-c2ncccn2)cc1C(=O)N1C[C@H]2[C@H](Oc3cc(C(C)(C)N)cc(-c4ccc(F)cc4)n3)[C@@]2(C)C1` (single isomer, unassigned; enantiomer 1) [Example 104A], the values for the EC50 with RSV-A2-GFP virus (setting [6]) and in the experiment with hMPV-GFP virus (setting [4]) were less than 10 nM and more than 100 nM, respectively.
As to `Cn1nc(-c2ncccn2)cc1C(=O)N1C[C@H]2[C@H](Oc3cc(C(C)(C)N)cc(-c4ccc(F)c(F)c4)n3)[C@@]2(C)C1` (single isomer, unassigned; enantiomer 1) [Example 105A], the EC50 in the experiment on RSV-A2-GFP virus (setting [6]) is less than 10 nM; in the experiment on hMPV-GFP virus (setting [5]), more than 100 nM.
With `Cc1nn(-c2ncccn2)cc1C(=O)N1C[C@H]2[C@H](Oc3cc(C(C)(C)N)cc(-c4ccc(F)c(F)c4)n3)[C@@]2(C)C1` (single isomer, unassigned; enantiomer 1) [Example 106A], the EC50 was less than 10 nM with RSV-A2-GFP virus (setting [6]) and more than 100 nM in the experiment on hMPV-GFP virus (setting [5]).
As for `Cc1nn(-c2ncccn2)cc1C(=O)N1C[C@H]2[C@H](Oc3cc(C(C)(C)N)cc(-c4ccc(F)cc4)n3)[C@@]2(C)C1` (single isomer, unassigned; enantiomer 1) [Example 107A], the EC50 in the experiment with RSV-A2-GFP virus (setting [6]) was less than 10 nM; with hMPV-GFP virus (setting [4]) it was more than 100 nM.
As to `Cc1nc(-c2ncccn2)sc1C(=O)N1C[C@@H]2[C@H](C1)[C@H]2Oc1cc(C(C)(C)N)cc(-c2ccc(F)c(F)c2)n1` [Example 15, ((1R,5S,6s)-6-((4-(2-aminopropan-2-yl)-6-(3,4-difluorophenyl)pyridin-2-yl)oxy)-3-azabicyclo[3.1.0]hexan-3-yl)(4-methyl-2-(pyrimidin-2-yl)thiazol-5-yl)methanone], the concentration giving a half-maximal response (EC50) in the experiment on RSV-A2-GFP virus (setting [1]) was less than 10 nM.
The same measure, in the same setting: in the case of `Cc1ccc(-c2cc(C(C)(C)N)cc(O[C@H]3[C@@H]4CN(C(=O)c5sc(-c6ncccn6)nc5C)C[C@@H]43)n2)cc1` [Example 21, ((1R,5S,6s)-6-((4-(2-aminopropan-2-yl)-6-(p-tolyl)pyridin-2-yl)oxy)-3-azabicyclo[3.1.0]hexan-3-yl)(4-methyl-2-(pyrimidin-2-yl)thiazol-5-yl)methanone] it was less than 10 nM; in that of `Cc1nn(-c2ccccc2)cc1C(=O)N1C[C@@H]2[C@H](C1)[C@H]2Oc1cc(C(C)(C)N)cc(-c2ccc(F)cc2)n1` [Example 74, ((1R,5S,6s)-6-((4-(2-aminopropan-2-yl)-6-(4-fluorophenyl)pyridin-2-yl)oxy)-3-azabicyclo[3.1.0]hexan-3-yl)(3-methyl-1-phenyl-1H-pyrazol-4-yl)methanone], less than 10 nM.
